For one assay, the system named is Laodelphax striatellus. The assay can be described thus: Insecticidal test on Laodelphax striatellus. It is filed as in vivo. As to conditions: 192 h, rice seedlings dipped 30 seconds, ten 3rd-instar larvae, 8 days after the inoculation, read-out: insecticidal efficacy (corrected mortality rate). The text has this:
Insecticidal Test on Laodelphax striatellus
The condensed heterocyclic compounds represented by the general formula (1) of the present invention or salts thereof were separately dispersed in water and diluted to 500 ppm. Rice plant seedlings (variety: Nihonbare) were dipped in the agrochemical dispersions for 30 seconds. After air-dried, each seedling was put into a separate glass test tube and inoculated with ten 3rd-instar larvae of Laodelphax striatellus, and then the glass test tubes were capped with cotton plugs. At 8 days after the inoculation, the numbers of surviving larvae and dead larvae were counted, the corrected mortality rate was calculated according to the formula shown below, and the insecticidal efficacy was evaluated according to the criteria shown below. Corrected mortality rate (%)=100×(Survival rate in a non-treatment plot−Survival rate in a treatment plot)/Survival rate in a non-treatment plot [Math. 2] Corrected Mortality Rate A: the corrected mortality rate is 100%. B: the corrected mortality rate is 90 to 99%. C: the corrected mortality rate is 80 to 89%. D: the corrected mortality rate is 50 to 79%.

A further assay has as its system Plutella xylostella. The assay can be described thus: Insecticidal test on Plutella xylostella. As to conditions: 144 h, Chinese cabbage seedlings with laid eggs dipped about 30 seconds, 25° C., 6 days after the dip treatment, read-out: insecticidal efficacy (corrected mortality rate). It is filed as in vivo. From the text:
Insecticidal Test on Plutella xylostella
Adults of Plutella xylostella were released onto Chinese cabbage seedlings and allowed to lay eggs thereon. At 2 days after the release of the adults, the Chinese cabbage seedlings with laid eggs were dipped for about 30 seconds in agrochemical dispersions diluted to 500 ppm, each of which contained a different kind of indoline compound represented by the general formula (1) of the present invention as an active ingredient. After air-dried, the seedlings were kept in a thermostatic chamber at 25° C. At 6 days after the dip treatment, the number of hatched larvae per plot was counted, the mortality rate was calculated according to the formula shown below, and the insecticidal efficacy was evaluated according to the criteria of Test Example 2. This test was conducted in triplicate using 10 adults of Plutella xylostella per plot. Corrected mortality rate (%)=100×(Number of hatched larvae in a non-treatment plot−Number of hatched larvae in a treatment plot)/Number of hatched larvae in a non-treatment plot [Math. 3]

Broadly, the mortality is the share of the test organisms that died. As to `CCS(=O)(=O)N1c2ccc(C3CC3)cc2CC1c1nc2cc(SC(F)(F)F)ccc2o1` (centres unmarked) [Compound 3-19, 2-(1-ethylsulfonyl-5-cyclopropyl-indolin-2-yl)-5-trifluoromethyl-thiobenzo[d]oxazole], the mortality at 500 ppm in the assay with Laodelphax striatellus and with Plutella xylostella was 100% each time.

Take `CCS(=O)(=O)N1c2ccccc2CC1c1nc2cc(C(F)(F)F)cnc2n1C` (centres unmarked) [Compound 2-1, 2-(1-ethylsulfonyl-indolin-2-yl)-3-methyl-6-trifluoromethyl-3H-imidazo[4,5-b]pyridine]: the mortality at 500 ppm with Laodelphax striatellus and in the assay with Plutella xylostella was 100% throughout.

Take `CCS(=O)(=O)N1c2ccc(I)cc2CC1c1nc2cc(SC(F)(F)F)ccc2o1` (centres unmarked) [Compound 3-5, 2-(1-ethylsulfonyl-5-iodoindolin-2-yl)-5-trifluoromethyl-thiobenzo[d]oxazole]: the mortality at 500 ppm in the assay on Laodelphax striatellus and with Plutella xylostella was 100% each time.

For `CCS(=O)(=O)N1c2ccccc2CC1c1nc2cc(SC(F)(F)F)ccc2o1` (centres unmarked) [Compound 3-1, 2-(1-ethylsulfonyl-indolin-2-yl)-5-trifluoromethyl-thiobenzo[d]oxazole], the mortality at 500 ppm in the assay on Laodelphax striatellus and in the assay on Plutella xylostella was 100% throughout.

Source of the values: US10716306B2, “N-alkylsulfonyl indoline compound, agricultural and horticultural insecticide comprising the compound, and method for using the insecticide” (Nihon Nohyaku Co., Ltd., priority 2016, dated 2020).
